Data reported in article PMC7841422, “Predicting Volume of Distribution in Humans: Performance of In Silico Methods for a Large Set of Structurally Diverse Clinical Compounds” (Drug Metabolism and Disposition, 2021).

Assay: Blood-to-plasma partition ratio in human blood
Type: in vitro ADME
Conditions: human whole blood (K2EDTA as anticoagulant), control compounds, 37°C, 60 minutes incubation, LC/MS/MS, read-out: Blood-to-plasma partition ratio (BPR)
Protocol: In vitro measurement of blood-to-plasma partition was conducted in human blood (K2EDTA as anticoagulant) obtained from a commercial source (BioReclamation IVT, Liverpool, NY). Hematocrit (the ratio of volume of red blood cells to total blood) was measured by centrifugation of the whole blood at 3000 rpm for 10 minutes using microhematocrit capillary tubes. Control plasma was prepared from a portion of the whole blood by centrifugation at 3000g for 10 minutes. Both whole blood and control plasma samples were warmed at 37°C in a water bath for 30 minutes. Subsequently, the test compounds (1 µM in the final concentration) and controls [methazolamide (BPR ∼1) and metoprolol (BPR […])] were spiked into blood and incubated at 37°C (5% CO2) with shaking at 200 rpm for 60 minutes along with control samples. After incubation for 60 minutes, the incubated whole blood was removed from the water bath, and the plasma was separated by centrifugation at 1000g for 10 minutes. Aliquots of the control plasma were also removed. […] Test compounds and internal standard response (or peak area) ratio in whole blood and its resulting plasma were measured using liquid chromatography with tandem mass spectrometry (LC/MS/MS). Blood-to-plasma partition was calculated by ratio of mass spectrometric response of compounds in blood samples after 60 minutes of incubation to mass spectrometric response in plasma samples.

| blood plasma ratio at 60 min | SMILES |
| --- | --- |
| ~40 | COCCc1ccc(OCC(O)CNC(C)C)cc1 (centres unmarked) [metoprolol] |
| ~1 | CC(=O)/N=c1/sc(S(N)(=O)=O)nn1C [methazolamide] |
